Where two headings read alike, the source gives them in different places.
Key:
atheroma = experiment: NIRF / multi-wavelength fluorescence reflectance imaging (FRI) of resected aortas in rabbit atherosclerosis model; assay type: in vivo; details: for co-localization in atherosclerotic zones by FRI: MB 1 mg/kg 24 hours and ICG 0.5 mg/kg 0.5 hours before imaging, rabbit m464
Text: New Zealand white rabbits (3-4 kg, Charles River Laboratories, n=2) were fed a high cholesterol diet (0.3% total cholesterol, 5% peanut oil; Research Diets) and were subjected to an infrarenal abdominal aorta injury using a 3F Fogarty embolectomy balloon (Edwards Lifesciences). The 3F balloon was inserted percutaneously via the femoral artery, inflated to nominal pressure, and withdrawn under tension and repeated. After recovery from the injury, the rabbits were continued on the 0.3% high cholesterol diet, and their total serum cholesterol levels were routinely measured (Hemagen Diagnostics).
24 hours prior to atheroma imaging, 1 mg/kg concentration of MB in a phosphate buffer saline solution was administered to the rabbit subjects intravenously.
28 days after aortic injury and continuation on the high cholesterol diet, the rabbits were anesthetized and imaged using various imaging modalities. An aortic angiography (ARCADIS Varic C-arm fluoroscopy unit, Siemens) was performed on the rabbits with a manual contrast injection. After the angiography, an intravascular ultrasound (IVUS) was performed using a catheter (iLab, Boston Scientific). The IVUS catheter was used with an automated 0.5 mm/second pullback across the previously injured aortic region to assess plaque burden. Finally, the rabbit subjects underwent near-infrared fluorescence optical coherence tomography (NIRF-OCT) imaging.
Following multimodality imaging, the rabbits were euthanized, and their aortas were removed and placed in saline at 4° C. The freshly resected aortas were imaged using multi-wavelength fluorescence reflectance imaging (FRI) with fluorescein isothiocyanite (FITC) and MB having emission wavelengths of 535 nm and 700 nm, respectively. While using the FRI system (Kodak ImageStation 4000, Carestream Health), the excitation source used for triggering FITC's autofluorescence was focused around 470 nm with an exposure time of 4 seconds. MB's near-infrared fluorescence was triggered by excitation wavelengths around 630 nm for 64 seconds. […] The target-to-background ratios(TBRs) were calculated for each ROI as the mean plaque fluorescence divided by the background fluorescence measured in the adjacent normal vessel.
A concentration of 1 mg/kg MB in phosphate buffer saline solution was co-injected with a 0.5 mg/kg solution of indocyanine green (ICG) into the aorta of the rabbit subject, m464, 24 hours and 0.5 hours before imaging, respectively. Fluorescence reflectance imaging (FRI) was performed to evaluate uptake and distribution of MB and ICG. […]
The TBRs were calculated as the mean fluorescence divided by the background fluorescence of the adjacent normal aorta. […]

[1] = phosphate buffer saline solution; cited from earlier work
[2] = Half-life of MB in rabbit bloodstream from fluorescence intensity over time; assay type: in vivo; details: blood, intravenous, 1 mg/kg
Procedure: The methylene blue (MB) binding and uptake was evaluated in a rabbit model of atherosclerosis of the abdominal aorta. […] The half-life for MB in rabbit bloodstreams was measured in two subjects, m463 and m464 that had been subjected to a high cholesterol diet and the high inflammation protocol.

atherosclerotic lesions = experiment: Fluorescence microscopy, histology and RAM11 immunohistochemistry of aorta/vessel cross-sections; assay type: in vivo, rabbit
Procedure: A histology analysis for the aortas was then performed. The excised aortas were filled with an optimal cutting temperature compound and then snap frozen on dry ice. Using a cryostat (Leica CM3050 S), 8 μm sections of the aortas were obtained. The tissue sections were stained for hemotoxylin and eosin (H&E), Masson's Trichrome, and Oil Red 0 (ORO) histological imaging. Additionally, immunohistochemistry tests were performed for macrophages (RAM11; Dako).
Unstained tissue sections were imaged with a multi-wavelength fluorescence microscope (Nikon Eclipse 90i) for FITC and MB. FITC's autofluorescence emissions at 535 nm were excited with a 480 nm source, and MB's near-infrared fluorescent emissions at 700 nm were excited with a 630 nm Cy5.5 source.
The co-localization of MB and ICG found through FRI was also verified using high-resolution epifluorescence microscopy of fresh-frozen tissue cross-sections from the areas of interest outlined in the FRI results. […] Further, the MB binding was associated with cellular uptake when evaluating sections counterstained with a fluorescent nuclear stain.
Fluorescent microscopy (FM) was performed on a cross-section of the aorta of m464 in the fluorescein isothiocyanite (FITC) and Cy5 channels. […] The white areas represent the near-infrared fluorescence of MB under a Cy5.5 source. The grey areas represent the autofluorescence of FITC. There is little overlap between the MB and FITC areas, evidencing the unique uptake and binding profile for MB in atherosclerotic structures not targeted by other imaging agents. […] Again, the distinction between the areas of MB binding and FITC autofluorescence indicate MB's utility as an atheroma targeting agent unlike any other. Further, the TBR of MB in FIGS. 6A and 6B illustrates the robustness of the targeting profile of MB.
Moreover, FIGS. 7A-7C show FM images of an axial section of a subject's vessel including a venous thrombus after undergoing vessel injury according to the high inflammation protocol. The subject was injected with a 1 mg/kg MB concentration in a phosphate buffer saline solution 24 hours prior to imaging. […] This again evidences the unique binding pattern that MB may offer for vascular imaging.
MB binding in the aortas of the subjects was also evaluated using traditional histological stains. A tissue cross-section fluorescently imaged to evaluate MB uptake was further treated with a hemotoxylin and eosin (H&E) stain. […] Even less cellular areas were also found to have MB uptake.
Finally, the cross-section was imaged using immunohistochemical-staining techniques. The immunohistochemical stain RAM11 which is a known macrophage marker was used to cross-correlate the MB binding images. […] These areas where not limited to a specific location. For example, one area of consistent MB and RAM11 co-localization was located near the luminal side of internal elastic lamina as well as other regions of the atheroma.

[3] = healthy human volunteers, intravenous (Peter et al. 2000); cited from earlier work

In the case of CN(C)c1ccc2nc3ccc(N(C)C)cc3[s+]c2c1.[Cl-] [MB, [7-(dimethylamino)phenothiazin-3-ylidene]-dimethylazanium chloride], the “deposition in plaques detected by NIRF imaging” value (atheroma; 1 mg/kg intravenous, rabbit atherosclerosis model) was “can produce deposition of MB in plaques of rabbits”, the “co-localization in atherosclerotic zones by FRI” value (atheroma) was “co-localization of MB and ICG in the atherosclerotic zones of the aorta” and the “target-to-background ratios (TBRs) of aortas” value (atheroma; MB 1 mg/kg i.v. 24 hours before imaging, versus aortas without MB, FRI) was “higher TBRs than those without MB”. The molar attenuation coefficient [1] was 73,000 cm^−1/M, the quantum yield [1] was 5.3% and the quenching threshold [1] was 12.5 µM. For the same compound, the half-life ([2]; 1 phase exponential decay of fluorescence intensity, read-out: half-life of MB in bloodstream (converted)) was 7.35 h, the half-life ([2]; mean of m463 and m464, read-out: average of the MB half-life in the rabbits tested (converted)) was about 5.25 h and the half-life ([2]; rabbit subject m463, 1 phase exponential decay of fluorescence intensity, read-out: half-life of MB in bloodstream (converted)) was 3.13 h. For the same compound, the half-life ([2]; rabbit subject m463, read-out: half-life of MB in bloodstream (converted)) was about 3 h, the half-life ([2]; read-out: half-life of MB in bloodstream (converted)) was about 7.4 h and the “targeting to atheroma in FM image of aortic cross-section” value (atherosclerotic lesions; 1 mg/kg i.v. 24 hours before imaging, NIRF absent from normal arterial wall) was “highly targeted to the atheroma”. For the same compound, the “uptake in vessel with venous thrombus (FM)” value (atherosclerotic lesions; 1 mg/kg in phosphate buffer saline 24 hours prior to imaging) was “distinct spots or drops along the inner vessel walls and in the venous thrombus”, the “association of uptake with macrophages (RAM11 staining)” value (atherosclerotic lesions; aortic cross-section) was “associated with areas positive for macrophages in the RAM11 staining” and the “depth of binding in lesions (H&E histology)” value (atherosclerotic lesions; aortic cross-section) was “seen in specific regions permeating the entire depth of the lesions”. For the same compound, the “localization of uptake by high-resolution epifluorescence microscopy” value (atherosclerotic lesions; fresh-frozen tissue cross-sections) was “localize in both microscopic lesions and atherosclerotic lesions with greater than 60% stenosis” and the blood half-life [3] was 5.25 h.
With CC1(C)C(/C=C/C=C/C=C/C=C2\N(CCCCS(=O)(=O)O)c3ccc4ccccc4c3C2(C)C)=[N+](CCCCS(=O)(=O)[O-])c2ccc3ccccc3c21 [ICG, Indocyanine green] the “co-localization in atherosclerotic zones by FRI” value (atheroma) was “co-localization of MB and ICG in the atherosclerotic zones of the aorta”.

— patent US20220241437A1, “ATHER[…] AGENTS AND METHODS OF USING THE SAME” (THE GENERAL HOSPITAL CORPORATION, priority 2015, published 2022)
